Structures can show the parent of a compound that is named as a salt.
Assays:
melanoma cells (B316F10) = assay: Tumor growth inhibition in C57BL/6 syngeneic mouse model implanted with melanoma cells; assay type: in vivo; settings: 20 mg/kg orally once a day for 9 or 10 days, female C57BL/6 mice with implanted melanoma cells, tumor volume vs control group; for inhibition in vivo at 20 mg/kg: Mus musculus, po, read-out: TGI (%)
Protocol: The tumor growth inhibition effect of benzopyrene derivatives was evaluated in a C57BL/6 mouse tumor model (syngeneic mouse model) in which melanoma cells (B316F10) derived from C57BL/6 mice are implanted.
After the quarantine and acclimation period was over, a cell suspension prepared with 5×10^5 cells/0.1 mL PBS was filled into a disposable syringe and administered in an amount of 0.1 mL PBS/head subcutaneously to the right back of healthy test animals (female C57BL/6, 7 weeks old) for implantation. After cell line implantation, general symptoms were observed once daily during the engraftment and growth period. Animals with no abnormalities in their health and whose tumor volume reached 50 to 100 mm^3 when measured with a digital caliper were selected. Then, based on tumor volume and body weight, the groups were separated so that the average tumor volume per group was 70 to 100 mm^3. Ten (10) animals were separated per group, and 20 mg/kg of benzopyran derivatives were administered orally once a day for 9 or 10 days. Tumor volume was measured once every 2 or 3 days.
The measured tumor volume of the test compound administered groups was compared with that of the control group and is represented in Table 2 as the tumor growth inhibition (TGI, %).

human M2 macrophages = assay: Inhibition of human M2 macrophage activity, hCCL22 in culture supernatant by ELISA; assay type: cell-based; settings: hCCL22 secretion, THP-1 derived M2-like macrophages, compound present during 72 hours of differentiation
How it was run: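 THP-1 monocytes were differentiated with 100 ng/mL PMA for 24 h, then polarized with 25 ng/mL hIL-4 plus 25 ng/mL hIL-13 for 72 h. Compounds were present throughout the 72 h polarization. CCL22 in the supernatant was quantified by ELISA to give inhibition or EC50.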

EC50 (human M2 macrophages) [µM] | SMILES | inhibition in vivo at 20 mg/kg (melanoma cells (B316F10)) [%] | also measured
 | CC(=O)c1ccc(-n2c(=O)n3n(c2=O)C2C(=CC3)C(C)(C)Oc3cc(OP(=O)(O)O)ccc32)cc1 (stereo not shown) [Example 69, 2-(4-acetylphenyl)-7,7-dimethyl-1,3-dioxo-2,3,5,12b-tetrahydro-1H,7H-chromeno[4,3-c][1,2,4]triazolo[1,2-a]pyridazin-10-yl dihydrogen phosphate] | 25 to 66 | 
9.5 | CC1(C)Oc2cc(N3CCCC3)ccc2C2C1=CCn1c(=O)n(-c3ccc(C(=O)O)cc3)c(=O)n12 (stereo not shown) [Example 44, 4-(7,7-dimethyl-1,3-dioxo-10-(pyrrolidin-1-yl)-5,12b-dihydro-1H,7H-chromeno[4,3-c][1,2,4]triazolo[1,2-a]pyridazin-2(3H)-yl)benzoic acid] | 25 to 66 | 
74.7 | CC(=O)C(=O)N1CCN(C(=O)Oc2ccc3c(c2)OC(C)(C)C2=CCn4c(=O)n(-c5ccc(C(C)=O)cc5)c(=O)n4C23)CC1 (stereo not shown) [Example 68, 2-(4-acetylphenyl)-7,7-dimethyl-1,3-dioxo-2,3,5,12b-tetrahydro-1H,7H-chromeno[4,3-c][1,2,4]triazolo[1,2-a]pyridazin-10-yl 4-(2-oxopropanoyl)piperazine-1-carboxylate] | 25 to 66 | 
4.7 | CC(=O)c1ccc(-n2c(=O)n3n(c2=O)C2C(=CC3)C(C)(C)Oc3cc(OC(=O)CN(C)C)ccc32)cc1 (stereo not shown) [Example 72, 2-(4-acetylphenyl)-7,7-dimethyl-1,3-dioxo-2,3,5,12b-tetrahydro-1H,7H-chromeno[4,3-c][1,2,4]triazolo[1,2-a]pyridazin-10-yl dimethylglycinate hydrochloride] | 25 to 66 | 
 | CC(=O)c1ccc(-n2c(=O)n3n(c2=O)C2C(=CC3)C(C)(C)Oc3cc(OC(=O)N(C)CCC(=O)O)ccc32)cc1 (stereo not shown) [Example 92, sodium 3-((((2-(4-acetylphenyl)-7,7-dimethyl-1,3-dioxo-2,3,5,12b-tetrahydro-1H,7H-chromeno[4,3-c][1,2,4]triazolo[1,2-a]pyridazin-10-yl)oxy)carbonyl)(methyl)amino)propanoate] |  | TGI (%) (melanoma cells (B316F10)): 25.5%
 | COCCOC(=O)Oc1ccc2c(c1)OC(C)(C)C1=CCn3c(=O)n(-c4ccc(C(C)=O)cc4)c(=O)n3C12 (stereo not shown) [Example 73, 2-(4-acetylphenyl)-7,7-dimethyl-1,3-dioxo-2,3,5,12b-tetrahydro-1H,7H-chromeno[4,3-c][1,2,4]triazolo[1,2-a]pyridazin-10-yl (2-methoxyethyl) carbonate] | 31 | 
 | COCCOCCOCCOCCOC(=O)Oc1ccc2c(c1)OC(C)(C)C1=CCn3c(=O)n(-c4ccc(C(C)=O)cc4)c(=O)n3C12 (stereo not shown) [Example 75, 2-(4-acetylphenyl)-7,7-dimethyl-1,3-dioxo-2,3,5,12b-tetrahydro-1H,7H-chromeno[4,3-c][1,2,4]triazolo[1,2-a]pyridazin-10-yl (2,5,8,11-tetraoxatridecan-13-yl) carbonate] | 25.5 | 
 | CC(=O)Oc1ccc2c(c1)OC(C)(C)C1=CCn3c(=O)n(-c4ccc(C(C)=O)cc4)c(=O)n3C12 (stereo not shown) [Example 60, 2-(4-acetylphenyl)-7,7-dimethyl-1,3-dioxo-2,3,5,12b-tetrahydro-1H,7H-chromeno[4,3-c][1,2,4]triazolo[1,2-a]pyridazin-10-yl acetate] | 56.5 | 
 | CC(=O)c1ccc(-n2c(=O)n3n(c2=O)C2C(=CC3)C(C)(C)Oc3cc(OC(=O)[C@@H](N)CC(C)C)ccc32)cc1 (stereo partly drawn) [Example 81, 2-(4-acetylphenyl)-7,7-dimethyl-1,3-dioxo-2,3,5,12b-tetrahydro-1H,7H-chromeno[4,3-c][1,2,4]triazolo[1,2-a]pyridazin-10-yl L-leucinate 2,2,2-trifluoroacetic acid] | 25 to 66 | 
 | CC(=O)c1ccc(-n2c(=O)n3n(c2=O)C2C(=CC3)C(C)(C)Oc3cc(OC(=O)N(C)CCC(=O)O)ccc32)cc1 (stereo not shown) [Example 91, 3-((((2-(4-acetylphenyl)-7,7-dimethyl-1,3-dioxo-2,3,5,12b-tetrahydro-1H,7H-chromeno[4,3-c][1,2,4]triazolo[1,2-a]pyridazin-10-yl)oxy)carbonyl)(methyl)amino)propanoic acid] | 25 to 66 | 
8.1 | CC(=O)c1ccc(-n2c(=O)n3n(c2=O)C2C(=CC3)C(C)(C)Oc3cc(N(C(C)C)C(C)C)ccc32)cc1 (stereo not shown) [Example 47, 2-(4-acetylphenyl)-10-(diisopropylamino)-7,7-dimethyl-5,12b-dihydro-1H,7H-chromeno[4,3-c][1,2,4]triazolo[1,2-a]pyridazine-1,3(2H)-dione] |  | 
 | CC(=O)c1ccc(-n2c(=O)n3n(c2=O)C2C(=CC3)C(C)(C)Oc3cc(OC(=O)N4CCCC4)ccc32)cc1 (stereo not shown) [Example 74, 2-(4-acetylphenyl)-7,7-dimethyl-1,3-dioxo-2,3,5,12b-tetrahydro-1H,7H-chromeno[4,3-c][1,2,4]triazolo[1,2-a]pyridazin-10-yl pyrrolidine-1-carboxylate] | 25 to 66 | 
19.2 | CC(=O)c1ccc(-n2c(=O)n3n(c2=O)C2C(=CC3)C(C)(C)Oc3cc(-c4ccncc4)ccc32)cc1 (stereo not shown) [Example 43, 2-(4-acetylphenyl)-7,7-dimethyl-10-(pyridin-4-yl)-5,12b-dihydro-1H,7H-chromeno[4,3-c][1,2,4]triazolo[1,2-a]pyridazine-1,3(2H)-dione] |  | 
7 | CCN(c1ccc2c(c1)OC(C)(C)C1=CCn3c(=O)n(-c4ccc(C(C)=O)cc4)c(=O)n3C12)C(C)C (stereo not shown) [Example 46, 2-(4-acetylphenyl)-10-(ethyl(isopropyl)amino)-7,7-dimethyl-5,12b-dihydro-1H,7H-chromeno[4,3-c][1,2,4]triazolo[1,2-a]pyridazine-1,3(2H)-dione] | 25 to 66 | 

SMILES | EC50 (human M2 macrophages) [µM] | inhibition in vivo at 20 mg/kg (melanoma cells (B316F10)) [%] | also measured
CC(=O)c1ccc(-n2c(=O)n3n(c2=O)C2C(=CC3)C(C)(C)Oc3cc(OP(=O)(O)O)ccc32)cc1 (stereo not shown) [Example 70, disodium 2-(4-acetylphenyl)-7,7-dimethyl-1,3-dioxo-2,3,5,12b-tetrahydro-1H,7H-chromeno[4,3-c][1,2,4]triazolo[1,2-a]pyridazin-10-yl phosphate] | 9.4 |  | TGI (%) (melanoma cells (B316F10); phosphate): 26.2%
CC(=O)c1ccc(-n2c(=O)n3n(c2=O)C2C(=CC3)C(C)(C)Oc3cc(OC(=O)N4CCN(C(=O)[C@@H]5CCCN5)CC4)ccc32)cc1 (stereo partly drawn) [Example 82, 2-(4-acetylphenyl)-7,7-dimethyl-1,3-dioxo-2,3,5,12b-tetrahydro-1H,7H-chromeno[4,3-c][1,2,4]triazolo[1,2-a]pyridazin-10-yl 4-(L-prolyl)piperazine-1-carboxylate hydrochloride] | 68.6 | 66.3 | 
CC(=O)c1ccc(-n2c(=O)n3n(c2=O)C2C(=CC3)C(C)(C)Oc3cc(OC(=O)N(C)C)ccc32)cc1 (stereo not shown) [Example 62, 2-(4-acetylphenyl)-7,7-dimethyl-1,3-dioxo-2,3,5,12b-tetrahydro-1H,7H-chromeno[4,3-c][1,2,4]triazolo[1,2-a]pyridazin-10-yl dimethylcarbamate] | 41.3 | 32.3 | 
CC(=O)c1ccc(-n2c(=O)n3n(c2=O)C2C(=CC3)C(C)(C)Oc3cc(OC(=O)N4CCNCC4)ccc32)cc1 (stereo not shown) [Example 67, 2-(4-acetylphenyl)-7,7-dimethyl-1,3-dioxo-2,3,5,12b-tetrahydro-1H,7H-chromeno[4,3-c][1,2,4]triazolo[1,2-a]pyridazin-10-yl piperazine-1-carboxylate hydrochloride] | 17.5 |  | 

— patent US20250042911A1, “NOVEL BENZOPYRAN DERIVATIVE AND USE THEREOF” (SPARK BIOPHARMA, INC, priority 2021, published 2025)
